Test results as given in BindingDB's records for doi:10.1016/j.chembiol.2003.11.012 (Universit&Agrave, 2003).

Experiments:
Test in all cases: Inhibition Assay
Conditions in all cases: pH 7; 20 °C
[1] = molecular target: Thymidylate synthase (Escherichia coli (strain K12), UniProt P0A884)
Experimental: (§1) The inhibition assay pattern for all of the compounds was determined by steady-state kinetic analysis of the dependence of the TS enzyme activity on folate concentration at various concentration.

[2] = molecular target: T1, Thymidylate synthase (Lacticaseibacillus casei, UniProt P00469)
T1 sequence (P00469 whole entry): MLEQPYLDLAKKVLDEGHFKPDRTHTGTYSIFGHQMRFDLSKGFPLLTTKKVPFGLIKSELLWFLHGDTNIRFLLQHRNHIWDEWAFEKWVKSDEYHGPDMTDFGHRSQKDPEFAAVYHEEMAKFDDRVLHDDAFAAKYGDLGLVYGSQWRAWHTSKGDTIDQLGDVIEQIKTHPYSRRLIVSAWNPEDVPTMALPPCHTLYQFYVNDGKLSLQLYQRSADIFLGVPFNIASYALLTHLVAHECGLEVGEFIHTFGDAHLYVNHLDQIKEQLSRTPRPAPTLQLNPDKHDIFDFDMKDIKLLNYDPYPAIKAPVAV
Experimental: as §1

[3] = molecular target: Bifunctional dihydrofolate reductase-thymidylate synthase (Leishmania major, UniProt P07382)
Bifunctional dihydrofolate reductase-thymidylate synthase, sequence (P07382 whole entry): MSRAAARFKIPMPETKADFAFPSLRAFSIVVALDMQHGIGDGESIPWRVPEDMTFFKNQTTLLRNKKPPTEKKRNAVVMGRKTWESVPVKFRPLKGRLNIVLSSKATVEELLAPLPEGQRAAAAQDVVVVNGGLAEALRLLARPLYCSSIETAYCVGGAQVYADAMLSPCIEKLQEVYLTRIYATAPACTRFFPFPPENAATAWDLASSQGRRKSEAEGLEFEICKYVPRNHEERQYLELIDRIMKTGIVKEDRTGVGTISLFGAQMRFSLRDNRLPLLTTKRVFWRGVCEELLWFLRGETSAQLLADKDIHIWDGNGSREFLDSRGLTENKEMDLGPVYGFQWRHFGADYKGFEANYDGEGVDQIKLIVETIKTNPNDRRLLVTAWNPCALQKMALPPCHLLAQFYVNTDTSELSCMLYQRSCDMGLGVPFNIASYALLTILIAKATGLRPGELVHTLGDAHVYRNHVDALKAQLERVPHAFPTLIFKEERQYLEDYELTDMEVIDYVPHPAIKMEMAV
Experimental: as §1

[4] = molecular target: Thymidylate synthase (Homo sapiens, UniProt P04818)
Thymidylate synthase (Homo sapiens, UniProt P04818), sequence (P04818 whole entry): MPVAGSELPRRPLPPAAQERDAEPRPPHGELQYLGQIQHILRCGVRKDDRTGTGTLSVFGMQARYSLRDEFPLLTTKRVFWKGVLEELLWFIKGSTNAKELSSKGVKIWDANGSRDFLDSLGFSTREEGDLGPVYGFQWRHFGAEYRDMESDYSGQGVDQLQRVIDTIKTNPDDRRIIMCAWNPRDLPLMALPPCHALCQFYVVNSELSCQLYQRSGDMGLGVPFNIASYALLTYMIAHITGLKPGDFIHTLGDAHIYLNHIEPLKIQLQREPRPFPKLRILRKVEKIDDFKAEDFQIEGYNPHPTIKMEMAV
Experimental: as §1

[5] = molecular target: T2, Thymidylate synthase (Pneumocystis carinii, UniProt P13100)
T2 sequence (P13100 whole entry): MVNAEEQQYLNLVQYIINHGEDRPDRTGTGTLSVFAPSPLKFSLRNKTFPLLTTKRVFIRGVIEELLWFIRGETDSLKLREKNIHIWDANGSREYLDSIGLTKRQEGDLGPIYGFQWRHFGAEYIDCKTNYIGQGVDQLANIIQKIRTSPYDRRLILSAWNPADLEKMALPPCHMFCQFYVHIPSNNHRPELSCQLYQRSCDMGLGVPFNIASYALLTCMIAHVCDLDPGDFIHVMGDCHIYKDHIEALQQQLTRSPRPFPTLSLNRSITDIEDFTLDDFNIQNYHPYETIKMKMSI
Experimental: as §1

Thymidylate synthase (Escherichia coli (strain K12), UniProt P0A884), sequence (P0A884 whole entry): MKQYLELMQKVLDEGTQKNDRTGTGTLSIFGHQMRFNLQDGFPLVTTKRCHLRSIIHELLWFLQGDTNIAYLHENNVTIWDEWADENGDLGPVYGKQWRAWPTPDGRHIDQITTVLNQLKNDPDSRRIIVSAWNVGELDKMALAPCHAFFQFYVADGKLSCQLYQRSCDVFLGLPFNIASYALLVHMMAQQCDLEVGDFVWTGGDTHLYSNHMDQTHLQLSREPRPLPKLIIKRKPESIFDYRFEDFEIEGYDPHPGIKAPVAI

SMILES | Ki [1] | Ki [2] | Ki [3] | Ki [4] | Ki [5]
O=C1OC(c2ccc(O)c(Br)c2)(c2ccc(O)c(Br)c2)c2ccc(Cl)c3cccc1c23 [Phenolnaphthalein derivative, 2] | 4.1 µM | 0.8 µM | > 1080 µM | > 245 µM | 28 µM
O=C1OC(c2cc(Br)c(O)c(Br)c2)(c2cc(Br)c(O)c(Br)c2)c2c1ccc1ccccc21 [Phenolnaphthalein derivative, 5] | – | – | 41 µM | > 245 µM | 32.7 µM
O=C1OC(c2ccc(O)c(Cl)c2)(c2ccc(O)c(Cl)c2)c2cccc3cccc1c23 | – | – | > 1080 µM | – | –
O=C1OC(c2ccc(O)c(F)c2)(c2ccc(O)c(F)c2)c2cccc3cccc1c23 [Phenolnaphthalein derivative, 1] | – | – | > 1780 µM | – | –
O=C1OC(c2ccc(O)c(Br)c2)(c2ccc(O)c(Br)c2)c2c1ccc1ccccc21 [Phenolnaphthalein derivative, 4] | 0.9 µM | – | 63 µM | > 132 µM | > 132 µM
O=C1OC(c2ccc(O)c(F)c2)(c2ccc(O)c(F)c2)c2ccc(Cl)c3cccc1c23 [Phenolnaphthalein derivative, 3] | 1.1 µM | 1.8 µM | > 1080 µM | > 245 µM | 22 µM
C#CCN(Cc1ccc2nc(N)[nH]c(=O)c2c1)c1ccc(C(=O)N[C@@H](CCC(=O)O)C(=O)O)cc1 | – | – | 0.08 µM | – | –
